Experimental data: article PMC3510435 (Febs Letters, 2012)

Key:
[1] = molecular target: T1, APH(3′)-IIIa (aminoglycoside phosphotransferase(3′)-IIIa) (Enterococcus faecalis, UniProt P0A3Y5); assay: quench flow and coupled-assay stopped flow, ADP production; type: biochemical; conditions: 100 μM KanA, 200 μM ATP, 0.2 μM enzyme, 25 °C, pH 7.5; KanA also binds the E·ADP complex (uncompetitive-type abortive complex)
T1 construct: gene aphA; recombinant, N-terminal 6His-tag kept (pET15b), E. coli BL21(DE3)
T1 sequence (P0A3Y5 whole entry): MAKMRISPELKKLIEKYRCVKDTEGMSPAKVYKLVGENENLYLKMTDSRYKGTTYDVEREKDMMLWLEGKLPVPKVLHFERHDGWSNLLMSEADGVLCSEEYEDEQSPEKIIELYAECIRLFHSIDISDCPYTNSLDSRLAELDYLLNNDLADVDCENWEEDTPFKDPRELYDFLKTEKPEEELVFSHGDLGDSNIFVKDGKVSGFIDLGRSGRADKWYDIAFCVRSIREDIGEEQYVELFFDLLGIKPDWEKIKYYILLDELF

[2] = molecular target: T1, APH(3′)-IIIa (aminoglycoside phosphotransferase(3′)-IIIa); assay: rapid quench flow, total ADP by HPLC; type: biochemical; conditions: 20 μM ADP added together with 20 μM ATP, 5 μM enzyme, 100 μM KanA, 25 °C, pH 7.5; competes with ATP for E·KanA; also the reaction product

SMILES	quench flow and coupled-assay stopped flow, ADP production [1]	% reduction of kss and Aburst [2]
NC[C@H]1O[C@H](O[C@H]2[C@H](O)[C@@H](O[C@H]3O[C@H](CO)[C@@H](O)[C@H](N)[C@H]3O)[C@H](N)C[C@@H]2N)[C@H](O)[C@@H](O)[C@@H]1O [kanamycin A]	The initial kss determined by the two methods were identical	
Nc1ncnc2c1ncn2[C@@H]1O[C@H](COP(=O)(O)OP(=O)(O)O)[C@@H](O)[C@H]1O [ADP]		~ 50%
